Consider six molecules from US20240148895A1, “ANTIBODY-DRUG CONJUGATE” (Eisai R&D Management Co., Ltd., priority 2022, published 2024).

For assay [1], the target named is T1, BRD4(BD1+BD2) protein (Homo sapiens, UniProt O60885).
T1 construct: 5 μL of BRD4(BD1+BD2) protein solution prepared to 3.6 ng/μL; purchased BPS Bioscience Inc. 32612
As to the kind of experiment: BRD4 binding inhibition assay (TR-FRET). Conditions: BRD4(BD1+BD2) TR-FRET Assay Kit, reaction 2 hours at room temperature; read-out: IC50 (concentration necessary for 50% inhibition of BRD4 binding activity). Here is the method: This assay measures binding inhibition activity of the test substance on the bromodomain of BRD4 protein.
BRD4 binding inhibition activity assay was carried out using a BRD4(BD1+BD2)TR-FRET Assay Kit (BPS Bioscience Inc. Catalog #32612), according to the attached instructions. In a flat-bottom 384-well white plate (Greiner 781080) there was added 8 μL of Tb-labeled donor/dye-labeled acceptor solution diluted 160-fold with 1×BRD TR-FRET Assay Buffer1, with 5 μL of BET Bromodomain Ligand diluted 40-fold with 1×BRD TR-FRET Assay Buffer1 in the test substance measuring wells and the Positive Control wells, and 5 μL of Non-acetylated Ligand1 diluted 40-fold with 1×BRD TR-FRET Assay Buffer1 in the Negative Control wells. After adding 2 μL of test substance diluted with 1×BRD TR-FRET Assay Buffer1 to the test substance measuring wells, and 2 μL of Dimethyl Sulfoxide solution diluted 100-fold with 1×BRD TR-FRET Assay Buffer1 to the Positive Control wells and Negative Control wells, 5 μL of BRD4(BD1+BD2) protein solution prepared to 3.6 ng/μL with 1×BRD TR-FRET Assay Buffer1 was added and reaction was conducted for 2 hours at room temperature. The fluorescence intensity was measured at 620 nm and 665 nm with irradiation of 340 nm excitation light into each well, using an Envision™ (Perkin-Elmer). The ratio of fluorescence intensity at […] with respect to fluorescence intensity at 620 nm for each well was recorded as the TR-FRET ratio, and the TR-FRET ratio in the presence of the test substance was calculated with the Positive Control well value as 100%, subtracting the Negative Control well value. The concentration of test substance necessary for 50% inhibition of BRD4 binding activity (IC50) was calculated from the TR-FRET ratio, and shown in Table 1.
(Time-resolved FRET reads energy transfer from a long-lived donor to a nearby acceptor.)

Assay [2] relates to AsPC-1/Cas9 cell line. As to the kind of experiment: AsPC-1/Cas9 growth inhibition assay. The note with it: Homo sapiens, ASPC1, 120 h, AsPC-1/Cas9 cells, 5 days culture, CellTiter Glo 2.0; read-out: Absolute IC50—Day 5 (nM) AsPC-1 Cas9. In kind it is cell-based, human. On the procedure: The human pancreatic cancer cell line AsPC-1 (ATCC Number CRL1682) was infected with Edit-R Lentiviral hCMV-Blast-Cas9 Nuclease Particle (Dharmacon, VCAS10124) in the presence of 8 μg/ml of Hexadimethrine bromide (Sigma, H9268), and after 24 hours it was exposed to 10 μg/ml of Blastcidin S (Thermo, A11139) to remove the uninfected cells, thereby establishing an AsPC-1/Cas9 cell line. The cells were maintenance cultured in a 5% CO2 incubator (37° C.) using RPMI-1640 (FujiFilm-Wako Pure Chemical Industries) containing 10% fetal bovine serum (FBS: SIGMA 173012) and penicillin/streptomycin (FujiFilm-Wako Pure Chemical Industries) (hereunder referred to simply as “culture medium”). After adding 45 μL of AsPC-1/Cas9 cell suspension prepared to 2.0×10^4 cells/mL using culture medium into each well of a 384-well plate (Greiner 781091), the cells were cultured overnight in a 5% CO2 incubator (37° C.). On the following day, 5 μL of the test substance diluted with culture medium was added to each well, and culturing was continued for 5 days in a 5% CO2 incubator (37° C.). Next, 25 μL of CellTiter Glo™ 2.0 (Promega) was added to each well, and the plate contents were mixed for 5 minutes using a plate mixer. The plate was stationed for 10 minutes at room temperature while shielded from light, and then the luminous intensity was measured with an ENVISION™ (Perkin-Elmer). The luminescence value of the wells with addition of test substance was determined as a relative value, with 100% as the luminescence value of the wells with cells but without addition of the test substance, and 0% as the luminescence value of the wells without cells. A plot of test substance concentration against luminescence value % approximated a 4-parameter logistic curve, and the test substance concentration necessary for 50% inhibition of cell growth (Absolute IC50) was calculated, and is shown in Table 4.
For orientation: In ATP-based viability assays light output follows the ATP content of the culture.

Assay [3] concerns the target HiBiT tagged BRD4-BD1 protein in HEK293/LgBiT/hPGK/HiBiT-BRD4-BD1 cells (Homo sapiens, UniProt O60885). As to the kind of experiment: BET BD1 domain degradation assay. In kind it is cell-based. On the set-up: HiBit-linker-BRD4 BD1(1-209); host or cells: HEK293 (ATCC CRL-1573) stably transduced with LgBiT and HiBiT-BRD4-BD1. Conditions: concentration for 50% reduction in HiBiT-BRD4-BD1 protein level, 3 hours, read-out: Absolute DC50—3 h (nM) HEK293_HiBiT-BRD4-BD1. An excerpt: HEK293/LgBiT/hPGK/HiBiT-BRD4-BD1 cells were established by introducing LgBiT and HiBiT-BRD4-BD1 into the human fetus renal cell line HEK293 (ATCC Number CRL-1573). LgBiT was introduced using lentivirus vector LV[Exp]-Bsd-EFS>{LgBiT}, and HiBiT-BRD4-BD1 was introduced with lentivirus vector LV[Exp]-Puro-hPGK>{HiBit-linker-BRD4 BD1(1-209)}. The vector plasmids LV[Exp]-Bsd-EFS>{LgBiT} and LV[Exp]-Puro-hPGK>{HiBit-linker-BRD4_BD1(1-209)} were constructed by VectorBuilder Co. The lentivirus was produced using a Mission Lentivirus Packaging Mix (Sigma) according to the manufacturer's protocol. Viral infection and drug selection of infected cells were carried out by the following published method (Akagi T. et. al, PNAS 2003; 100:13567-72). The cells were maintenance cultured in a 5% CO2 incubator (37° C.), using culture medium. A 45 μL portion of cell suspension of HEK293/LgBiT/hPGK/HiBiT-BRD4-BD1 cells prepared to 6.7×10^4 cells/mL using culture medium was added to each well of a collagen I-coated 384-well plate (Falcon 356667), and the cells were cultured overnight in a 5% CO2 incubator (37° C.). On the following day, 5 μL of test substance diluted with RPMI-1640 (FujiFilm-Wako Pure Chemical Industries) containing 10% fetal bovine serum (FBS: SIGMA 173012) and penicillin/streptomycin (FujiFilm-Wako Pure Chemical Industries) was added to each well, and culturing was continued for 3 hours in a 5% CO2 incubator (37° C.). The luminous intensity was measured using a Nono-Glo HiBiT Lytic Detection System (Promega), and the intracellular HiBiT tagged BRD4-BD1 protein level was calculated. After culturing, 25 μL of measuring reagent was added to each well and the plate contents were mixed for 5 minutes using a plate mixer. The plate was stationed for 10 minutes at room temperature while shielded from light, and then the luminous intensity was measured with an ENVISION′ (Perkin-Elmer). The luminescence value of the wells with addition of test substance was determined as a relative value, with 100% as the luminescence value of the wells with cells but without addition of the test substance, and 0% as the luminescence value of the wells without cells. A plot of test substance concentration against luminescence value % approximated a 4-parameter logistic curve, and the test substance concentration necessary for 50% reduction in protein level (Absolute DC50) was calculated and is shown in Table 4.

SMILES strings stand for the structures.

In the case of `Cc1cc(-c2ccc3nc(N)nc(C(CO)(OC4CC4)c4ccccc4)c3c2)cn(C)c1=O` (centres unmarked) [Example 2, 5-(2-Amino-4-(1-cyclopropoxy-2-hydroxy-1-phenylethyl)quinazolin-6-yl)-1,3-dimethylpyridin-2(1H)-one], the IC50 in assay [1] came to 26 nM.
On to `Cn1cc(-c2ccc3nc(N4CCC(N5CCC(C)(N)CC5)CC4)nc(C(CO)(OC4CC4)c4ccccc4)c3c2)c2cc[nH]c2c1=O` (centres unmarked) [Example 27, 4-(2-(4-Amino-4-methyl-[1,4′-bipiperidin]-1′-yl)-4-(1-cyclopropoxy-2-hydroxy-1-phenylethyl)quinazolin-6-yl)-6-methyl-1,6-dihydro-7H-pyrrolo[2,3-c]pyridin-7-one], for which, in assay [1], the IC50 was found to be 80 nM.
With `CCCC(CO)(CCC)c1nc(N2CCC(CN3CCNCC3)CC2)nc2ccc(-c3cn(C)c(=O)cc3OC)cc12` [Example 32, 5-(4-(4-(Hydroxymethyl)heptan-4-yl)-2-(4-(piperazin-1-ylmethyl)piperidin-1-yl)quinazolin-6-yl)-4-methoxy-1-methylpyridin-2(1H)-one], in assay [1], the IC50 stood at 81 nM.
For the molecule `CNCCN(C)C(=O)OCC(OC1CC1)(c1ccccc1)c1nc(N2CCC(CN3C[C@@H](C)NC[C@@H]3C)CC2)nc2ccc(-c3cn(C)c(=O)cc3OC)cc12` (stereo partly drawn) [Example 34, 2-Cyclopropoxy-2-(2-(4-(((2S,5R)-2,5-dimethylpiperazin-1-yl)methyl)piperidin-1-yl)-6-(4-methoxy-1-methyl-6-oxo-1,6-dihydropyridin-3-yl)quinazolin-4-yl)-2-phenylethyl methyl(2-(methylamino)ethyl)carbamate], the IC50 in assay [1] came out at 91 nM.
The term DC50 denotes the concentration at which degradation of the target reaches its halfway point. As to `COc1ccc(C#CCNC2(C)CCN(C3CCN(c4nc([C@@](CO)(OC5CC5)c5ccccc5)c5cc(-c6cn(C)c(=O)c7[nH]ccc67)ccc5n4)CC3)CC2)cc1N1CCC(=O)N(CNC(=O)[C@H](CC(=O)O)NC(C)=O)C1=O` [Example 138, (S)-3-Acetamide-4-(((3-(5-(3-((1′-(4-((S)-1-cyclopropoxy-2-hydroxy-1-phenylethyl)-6-(6-methyl-7-oxo-6,7-dihydro-1H-pyrrolo[2,3-c]pyridin-4-yl)quinazolin-2-yl)-4-methyl-[1,4′-bipiperidin]-4-yl)amino)prop-1-yn-1-yl)-2-methoxyphenyl)-2,6-dioxotetrahydropyrimidine-1(2H)-yl)methyl)amino)-4-oxobutanoic acid], the IC50 in assay [2] is 41 nM. Also, in assay [3], the 50% degradation concentration (DC50) was greater than 100 nM.
For the molecule `COc1ccc(C#CCNC2(C)CCN(C3CCN(c4nc(C(CO)(OC5CC5)c5ccccc5)c5cc(-c6cn(C)c(=O)c7[nH]ccc67)ccc5n4)CC3)CC2)cc1N1CCC(=O)NC1=O` (centres unmarked) [Example 144, 1-(5-(3-((1′-(4-(1-Cyclopropoxy-2-hydroxy-1-phenylethyl)-6-(6-methyl-7-oxo-6,7-dihydro-1H-pyrrolo[2,3-c]pyridin-4-yl)quinazolin-2-yl)-4-methyl-[1,4′-bipiperidin]-4-yl)amino)prop-1-yn-1-yl)-2-methoxyphenyl)dihydropyrimidine-2,4(1H,3H)-dione], the IC50 in assay [2] amounted to 0.13 nM. Besides, the DC50 in assay [3] worked out at 0.11 nM.
